These results are taken from US20250170158A1, “METHODS OF TREATING MEDICAL CONDITIONS USING CENSAVUDINE OR A RELATED COMPOUND” (ROME Therapeutics, Inc., priority 2022, published 2025).

Data set [1] deals with T1, HERV-K reverse transcriptase (Homo sapiens, UniProt V9H0F6).
T1 construct: fused on or other part: C-terminal 8His tag
Kind of data set: Homogeneous time-resolved fluorescence (HTRF) HERV-K RT assay. It is filed as biochemical. Particulars: HERV-K reverse transcriptase (2-596)-8His protein, read-out: IC50, inhibition of HERV-K reverse transcriptase. How it is done:
The HERV-K reverse transcriptase homogeneous time-resolved fluorescence (HTRF) assay was performed in a 384-well format with HERV-K reverse transcriptase (2-596)-8His protein. Baculoviruses were created using Bac-to-Bac technology (Invitrogen). pFastBac donor plasmids containing HERV-K reverse transcriptase sequence (NCBI GenBank number AAC63291.1, J. Virology (1999) Vol. 73, No. 3, pp. 2365-2375) were transformed into DH10 Bac cells following the manufacturer's instructions. Recombinant bacmids were then isolated clonally and transfected into SF9 cells with lipofectin. HERV-K reverse transcriptase was expressed in the SF9 insect cells and then purified using immobilized metal affinity chromatography (IMAC) followed by size-exclusion chromatography (SEC). Test compound was serially diluted in DMSO and further diluted in the assay buffer (50 mM Tris-HCl, 50 mM KCl, 10 mM MgCl2, 10 mM DTT, pH 8.1) to achieve a final DMSO concentration of 1%. […] At the end of the incubation, fluorescence was read at ex/em=337/485 nm and ex/em=337/520 nm on an Envision 2104 plate reader (Perkin Elmer). The fluorescence ratio at 520/485 nm was used for the calculation. […] The IC50 was calculated by fitting the compound dose inhibition curve with a 4-parameter non-linear regression equation.
On the technique in general: Time-resolved FRET reads energy transfer from a long-lived donor to a nearby acceptor.

In data set [2] the target is T2, LINE1 reverse transcriptase (Homo sapiens, UniProt O00370). In words: Homogeneous time-resolved fluorescence (HTRF) LINE1 RT assay. Details: recombinant MBP-tagged LINE1 protein (238-1061); MBP; made in house. Format: biochemical. Particulars: recombinant MBP-tagged LINE1 protein (238-1061), read-out: IC50, inhibition of LINE1 reverse transcriptase. How it is done:
The LINE1 reverse transcriptase homogeneous time-resolved fluorescence (HTRF) assay was performed with recombinant MBP-tagged LINE1 protein (238-1061) (generated and purified according to procedures in Dai L. et al. BMC Biochemistry 2011; 12:18) in a 384-well format. Test compound was serially diluted in DMSO and further diluted in the assay buffer (50 mM Tris-HCl, 50 mM KCl, 10 mM MgCl2, 10 mM DTT, pH 8.1) to achieve a final DMSO concentration of 1%. The serially diluted compound was mixed with 64 ng/well of LINE1 enzyme, 5 nM of pre-annealed template/biotin-primer pair (synthesized at Generay Biotechnology), 10 nM of Fluorescein-12-dATP fluorescent probe (Perkin Elmer), and 1 μM dGTP/dCTP/dTTP (Thermo Fisher Scientific) in the assay buffer. The template/biotin-primer sequences were as follows:
After incubating at 25° C. for 60 minutes, the detection reagent (20 mM EDTA with streptavidin-terbium cryptate, Cisbio Bioassay) in the PPI buffer (Cisbio Bioassay) was added, and the mixture was incubated at 25° C. for 30 minutes. At the end of the incubation, fluorescence was read at ex/em=337/485 nm and ex/em=337/520 nm on an Envision 2104 plate reader (Perkin Elmer). The fluorescence ratio at 520/485 nm was used for the calculation. […] The IC50 was calculated by fitting the compound dose inhibition curve with a 4-parameter non-linear regression equation.

Data set [3] deals with CD4+ T cells. Kind of data set: Mouse MOG study: BrdU cell proliferation assay on lymph node cells. It is filed as in vivo, C57BL mice. How it is done:
(§1) On day zero, four groups of six C57BL mice were immunized subcutaneously at 2 sites with 0.1 mL/site with MOG35-55/CFA (Hooke immunization kit). Dosing of mice started on day 0 and continued through day 11. The dosing schedule was:
(§2) The Vehicle used was 0.5% methylcellulose. Mice were dosed each day at approximately the same time each day. One day 11, 1 hour after receiving the last dose, plasma was collected, frozen and stored at −80° C. for analysis. At the end of the experiment, all mice were euthanized, and inguinal lymph nodes were collected and processed.
A bromodeoxyuridine (BrdU) cell proliferation assay was run on some of the lymph node cells to determine if treatment of mice with censavudine altered the proliferation of CD4+ T cells in culture upon restimulation with antigen. Cultures of the cells were set up in 96-well plates, each using 400k cells/well along with six concentrations of antigen: 0, 0.2 μg/mL, 0.7 μg/mL, 2.2 μg/mL, 6.6 μg/mL and 20.0 μg/mL, each with duplicates. The cells were cultured for approximately 40 hours, then BrdU was added to all wells at a concentration of 3 μg/mL. The cells were cultured an additional 3 hours after the addition of BrdU. Cells were then collected, stained with anti-CD4 and anti-BrdU antibodies (as per Becton Dickinson's standard protocols for BrdU labeling) and analyzed.

Data set [4] has as its system IL-17A, IFN, TNF. In words: Mouse MOG study: lymph node cell culture and CBA cytokine analysis. It is filed as in vivo, C57BL mice. How it is done: as §1, §2
Lymph node cells from each group were set up in 96-well plates with 400k cells/well along with seven concentrations of antigen: 0, 0.07 μg/mL, 0.2 μg/mL, 0.7 μg/mL, 2.2 μg/mL, 6.6 μg/mL and 20.0 μg/mL. After 72 hours of culturing, the supernatants were collected and analyzed for IL-17A, IFN […] , and TNF using CBA kits (Becton-Dickinson).

The test system of data set [5] is Type 1 Interferon. In words: Cellular assay for inhibiting IFN production in THP1 TREX1 KO cells. As to conditions: THP1-Dual KO-TREX1 cells, six days of treatment, alone or with 1 μM 5-Aza-2'-Deoxycytidine; FIG. 2. It is filed as cell-based. How it is done: THP1 Dual TREX1 KO cells were purchased from Invivogen.
Stock solution of censavudine was prepared in DMSO followed by a three-fold dilution in DMSO. Additional 50× dilution was prepared in cell culture media for each dilution. 10 μL of diluted censavudine was then added to a 96 well plate.
THP1-Dual™ KO-TREX1 cells were treated with either 1×PBS or 1 μM 5-Aza-2′-Deoxycytidine. 190 μL of the THP1-Dual™ KO-TREX1 cells from either treatment were added to each well of the 96-well plate containing censavudine titration at 50,000 cells/well. Cells were incubated at 37° C., 5% CO2 in a humidified incubator for six days. Cells treated with 1 μM 5-Aza-2′-Deoxycytidine were added at the same density as above and incubated at 37° C., 5% CO2 in a humidified incubator for six days. On day six, 25 μL of cell supernatant was transferred to a 96 well white-walled plate, followed by addition of 50 μL of QUANTI-LUC solution containing stabilizer to each well.

Data set [6] deals with THP1-Dual KO-TREX1 cells.
Procedure: The THP1-Dual™ KO-TREX1 cells were cultured in RPMI 1640, 10% heat-inactivated fetal bovine serum, 25 mM HEPES, 10 μg/mL Blasticidin, and 100 μg/mL Zeocin. THP1-Dual™ KO-TREX1 cells were treated with a dose titration of censavudine alone or in the presence of 1 μM 5-Aza-2′-Deoxycytidine (Sigma, cat #189825). Type 1 Interferon and cell viability were assessed after six days of treatment.
The remaining cells were assessed for cell viability by adding 25 μL of CellTiter-Glo (Promega, G9683) solution to each well, placed on a shaker for 10 minutes at room temperature. Luminescence was detected on a plate reader, according to manufacturer's instructions.
The target of data set [7] is T2, LINE1 reverse transcriptase. Kind of data set: Stable artificial-intron Cis LINE1 reporter assay. Format: cell-based. Details: expressed in transfected cells. Particulars: HeLa L1 artificial-intron reporter cells, doxycycline induced, 72 h, Firefly luciferase; read-out: IC50, inhibition of LINE1 reverse transcriptase. The source says:
A stable HeLa Tet-On 3G (Takara, cat no 631183) cell line expressing a bi-directional inducible LINE1 construct was generated as described in Xie, Y. et al. “Cell division promotes efficient retrotransposition in a stable L1 reporter cell line,” Mobile DNA (2013) 4:10. Single cell clones were screened for high Luciferase expression and the highest expression Firefly expressing clone was chosen for compound testing.
Test compound was serially diluted in DMSO and spotted in 96-well plates. Subsequently the HeLa L1 artifical-intron reporter cells were plated into the compound-containing wells (8,000 cells/well), and the cells were induced for reporter expression with doxycycline (Sigma cat no D9891) at a final concentration of 500 ng/mL. Luminescence was measured 72 h after plating using the Dual-Glo Luciferase Assay System (Promega cat no E2940) following the manufacturer's instructions. The Firefly Luciferase activity was used to report LINE1 activity.
(Reporter assays use an easily measured gene product as a stand-in for the process of interest.)

Data set [8] shares this target. Kind of data set: Transient artificial-intron Cis LINE1 reporter assay. Format: cell-based. The arrangement: expressed in transfected cells. As to conditions: HEK 293 cells; ratio of FLuc to RLuc reports LINE1 activity; read-out: IC50, inhibition of FLuc (FF/RR). How it is done: Intron-disrupted Firefly luciferase (FLuc) expression cassettes were generated as described by Xie, Y. et al. “Characterization of L1 retrotransposition with high-throughput dual-luciferase assays,” Nucleic Acid Res. (2011) Vol. 39, No. 3, e16. In addition, the plasmid contained an intact Renilla luciferase (RLuc) expression cassette on the vector backbone, in order to normalize transfection efficiency and measure potential cell toxicity.
HEK 293 cells were seeded in 96-well plates at 1,000 cells/well in 55 μL and grown for 24 hours. Cells were transfected with FuGeneHD (Promega) following the manufacturer's protocol. Each well received 0.133 ng plasmid, 0.4 μL FuGeneHD reagent, and 4.5 μL GlutaMAX-I-supplemented Opti-MEM I reduced-serum medium (Invitrogen). Cells were simultaneously treated with test compound serially diluted starting at 100 μM in a 3-fold dilution dose response.
Luminescence was measured using the Dual-Glo Luciferase Assay System (Promega) following the manufacturer's instructions. The ratio between FLuc and RLuc gene expression was used to report LINE1 activity.

The structures appear in SMILES notation. “Also recorded” adds a separate entry of the source.

T1 sequence (V9H0F6 entry or part of it): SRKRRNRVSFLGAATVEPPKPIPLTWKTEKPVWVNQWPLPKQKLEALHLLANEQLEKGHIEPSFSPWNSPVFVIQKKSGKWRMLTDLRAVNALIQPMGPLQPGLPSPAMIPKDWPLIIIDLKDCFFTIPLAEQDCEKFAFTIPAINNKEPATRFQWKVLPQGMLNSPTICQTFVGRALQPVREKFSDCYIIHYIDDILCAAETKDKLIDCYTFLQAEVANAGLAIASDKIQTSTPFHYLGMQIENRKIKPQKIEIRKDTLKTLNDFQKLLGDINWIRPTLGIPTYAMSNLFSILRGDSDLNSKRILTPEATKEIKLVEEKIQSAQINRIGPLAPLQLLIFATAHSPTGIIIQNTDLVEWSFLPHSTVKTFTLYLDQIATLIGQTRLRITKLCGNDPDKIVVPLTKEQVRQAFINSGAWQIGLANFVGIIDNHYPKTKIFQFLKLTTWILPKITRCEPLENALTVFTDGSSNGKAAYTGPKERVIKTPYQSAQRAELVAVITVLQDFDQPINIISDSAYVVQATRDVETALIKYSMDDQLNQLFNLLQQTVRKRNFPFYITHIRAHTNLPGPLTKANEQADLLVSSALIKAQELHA

With `C#C[C@@]1(COP(=O)(O)OP(=O)(O)OP(=O)(O)O)C=C[C@H](n2cc(C)c(=O)[nH]c2=O)O1`, the IC50 in data set [1] amounted to 6.4 µM; in data set [2], 70 nM.

For `C#C[C@@]1(CO)C=C[C@H](n2cc(C)c(=O)[nH]c2=O)O1` [censavudine, 1-[(2R,5R)-5-ethynyl-5-(hydroxymethyl)-2H-furan-2-yl]-5-methylpyrimidine-2,4-dione], the T cell proliferation result in data set [3] (MOG immunized mice, QD p.o. day 0-11, lymph node cells restimulated with antigen, BrdU, FIG. 3A) is listed as “reduce levels; also recorded: reduction of T-cell proliferation”. Further, the “Th17 (T17)” value in data set [3] (MOG immunized mice, various doses QD p.o., FIG. 3B) is “reduce levels; also recorded: reduction of the cytokine Th17”. In addition, the “Th1 (T1)” value in data set [3] (MOG immunized mice, various doses QD p.o., FIG. 3C) is on record as “reduce levels; also recorded: reduction of the cytokine Th1”. Moreover, the “autoreactive T-cell responses” value in data set [3] (doses between 40 mg/kg and 200 mg/kg, FIGS. 3A-3C) is given as “significant reduction”. Also, the IL-17A level result in data set [4] (MOG35-55/CFA immunized mice, QD p.o. day 0-11, lymph node cells restimulated with antigen 72 h, FIG. 4A) was “reduce levels; also recorded: reduction of IL17A”. In addition, the TNF level result in data set [4] (MOG35-55/CFA immunized mice, QD p.o. day 0-11, lymph node cells restimulated with antigen 72 h, FIG. 4B) is on record as “reduce levels; also recorded: reduction of TNF”. Also, the IFN level result in data set [4] (MOG35-55/CFA immunized mice, QD p.o. day 0-11, lymph node cells restimulated with antigen 72 h, FIG. 4C) is on record as “reduce levels; also recorded: reduction of IFN”. In data set [4] (all doses (8, 40, 200 mg/kg QD p.o.), FIGS. 4A-4C), the “proinflammatory cytokines (IL17A, TNF, IFN), effect” value is reported as “some effect”. In addition, in data set [4] (doses of 40 mg/kg and 200 mg/kg, FIGS. 4A-4C), the “proinflammatory cytokines (IL17A, TNF, IFN), response” value is reported as “best responses”. In addition, the “interferon (Type 1 Interferon reporter)” value in data set [5] is listed as “significant reduction of interferon; also recorded: inhibition of interferon”. The “cell viability / cell death” value in data set [6] is recorded as “does not lead to cell death”.

`C#C[C@@]1(CO)C=C[C@H](n2cc(C)c(=O)[nH]c2=O)O1` [drawing 16]: the IC50 in data set [7] worked out at 130 nM; in data set [8], 60 nM.
